According to patent US20240366813A1, “PEPTIDE-UREA DERIVATIVE, PHARMACEUTICAL COMPOSITION CONTAINING SAME AND APPLICATION THEREOF” (Bivision Pharmaceuticals, Inc., priority 0001, published 2024):
“And” between values parts separate entries of the source, which are not always exact repeats. Equal values may be shown once.

How the values were obtained:
22rv1 tumor = test: Tissue distribution in PSMA-positive 22rv1 tumor-bearing mice; assay type: in vivo; conditions: tail vein, FIG. 8
Experimental: Tissue distribution in PSMA-positive tumor-bearing mice: About 6-9 weeks old (Nod scid) mice (Jiangsu Huajing Molecular Imaging and Drug Research Institute Co., Ltd.) were inoculated subcutaneously with 5×10^6 cells of 22rv1 (in 50% Matrigel, Corning) on the right shoulder of animals. When the tumor grew to a size of about 150-350 mm^3, ^177Lu-E3 radiolabeled compound was injected into the tail vein of the mouse (about 7.4 MBq/mouse, specific activity: 22423.82 KBq/μg). The animals were euthanized by carbon dioxide inhalation at 0.25, 0.5, 1, 6, 24, 72, 144, and 168 hours respectively after administration. Blood and viscera (blood, liver, spleen, lung, heart, muscle, pancreas, testis, tumor) were collected from animals after euthanasia.
(§1) Blood was collected through the abdominal aorta, and immediately after collection, 100 μL was quantified into a designated centrifuge tube (weighed). After the viscera were collected, they were washed twice with deionized water and wiped dry. The viscera were put into a pre-weighed test tube, and weighed again. The weight of the sample was calculated. The sample was measured on the day of collection. All blood samples and tissue samples were measured for radioactive counts using a gamma counter, and the results are shown in FIG. 8.

[1] = In vivo metabolism test of 177Lu-labeled complex in SD rats (plasma radioactive counts); conditions: for plasma radioactive counts: individual rat, 100 μL plasma; for plasma radioactive counts, MEAN: mean of rats
Experimental: Eighteen SD rats (Hangzhou Ziyuan Experimental Animal Technology Co., Ltd.), male, weighing 180-200 g, were randomly divided into 6 groups, 3 rats in each group. […] of the labeled precursor compound was injected into the tail vein of each mouse. 250 μL of orbital blood was collected into anticoagulant tubes at 5 min, 0.5 h, 1 h, 2 h, 4 h, 8 h and 24 h after administration. Blood was centrifuged at 3000 rpm for 10 min, and 100 μL of plasma was taken into scintillation vials. 2 mL of scintillation fluid was added to each scintillation vial and shaken well. A liquid scintillation counter was used to detect radioactive counts in each vial.

22rv1 xenograft tumor = test: Pharmacodynamic study in 22rv1 mouse xenograft tumor model (effect example 11); assay type: in vivo, mice; conditions: over the two dose groups
[2] = system: 22rv1 PSMA-expressing tumors; test: SPECT imaging in 22rv1 tumor-bearing balb/c nude mice (effect example 10); assay type: in vivo; conditions: about 7.4 MBq/mouse tail vein
Experimental: About 4-5 weeks old (balb/c nude, Beijing Vital River) mice were subcutaneously inoculated with 5×10^6 cells of 22rv1 (in 50% Matrigel, Corning) on the right scapula of animals. When the tumor grew to a size of about 150-350 mm^3, after anesthesia with isoflurane, ^177Lu-PSMA-617, ^177Lu-E3, ^177Lu-E4, ^177Lu-E8, ^177Lu-E16, ^177Lu-E18, ^177Lu-E24 radiolabeled compounds were injected into the tail vein of mice (about 7.4 MBq/mouse, specific activity: 22423.82 KBq/μg). Subsequently, SPECT imaging was performed with a small animal SPECT-CT imaging system (U-SPECT+/CT, MI Labs) at 1 h, 5 h, 24 h, 48 h and 72 h, respectively. ^177Lu-PSMA-617 is shown in FIG. 9, ^177Lu-E3 is shown in FIG. 10, ^177Lu-E4 is shown in FIG. 11, ^177Lu-E8 is shown in FIG. 12, ^177Lu-E16 is shown in FIG. 13, ^177Lu-[…] is shown in FIG. 14, and ^177Lu-E24 is shown in FIG. 15. […] The main way of drug elimination is through the kidney.

[3] = system: LNCaP PSMA-positive tumors; test: SPECT imaging in mice carrying LNCaP PSMA-positive tumors; assay type: in vivo; conditions: 100 μCi tail vein
Experimental: 100 μCi of ^177Lu-labeled ^177Lu-E3 and ^177Lu-PSMA-617 were injected into mice carrying LNCaP PSMA-positive tumors (Jiangsu Huajing Molecular Imaging and Drug Research Institute Co., Ltd.) through the tail vein respectively. Mice were anesthetized with 2% isoflurane/98% oxygen for SPECT image contrast study.

[4] = In vivo distribution in healthy SD rats; conditions: intravenous, FIG. 7
Experimental: In vivo distribution in healthy rats: Radiolabeled E series compounds were injected into the tail vein of SD rats aged 6-9 weeks (Hangzhou Ziyuan Testal Animal Technology Co., Ltd.) (about 7.4 MBq/mouse, specific activity: 84200.14 kBq/μg). At different time points (0.25, 0.5, 1, 2, 4, 6, 24, 48, 72 h) after administration of labeled compounds to SD rats, the animals were euthanized by carbon dioxide inhalation, and the blood and […] viscera (blood, liver, spleen, lungs, heart, muscle, pancreas, testes) of the animals were collected after euthanasia.
as §1, with “water,” for “water and”, “dry,” for “dry. The viscera were”, “samples” for “the sample”, “counter.” for “counter, and the results are shown in FIG. 8.”

[5] = 5 min after tail vein injection
[6] = 0.5 h after tail vein injection

Which “drug concentration in the tumor after 7 days” value (22rv1 tumor) does the source give for `O=C([O-])CN1CCN(CC(=O)[O-])CCN(CC(=O)N2CCc3cc(C(=O)NC(Cc4ccc5ccccc5c4)C(=O)NCCCCC(NC(=O)NC(CCC(=O)O)C(=O)O)C(=O)O)ccc3C2)CCN(CC(=O)[O-])CC1.[177Lu+3]` (stereo not drawn) [^177Lu-E3] here?
The value was “high drug concentration”.

What about the “time of highest uptake in the tumor after administration” value (22rv1 tumor) of the same molecule?
The value was 2 h.

And the “uptake in non-target organs” value (22rv1 tumor)?
Its value is “always low”.

And the plasma radioactive counts [1, 5]?
Its plasma radioactive counts is 26791 cpm and 31372 cpm and 27797 cpm.

And the plasma radioactive counts [1, 6]?
The plasma radioactive counts was 10681 cpm and 8675 cpm and 8026 cpm.

And the plasma radioactive counts ([1]; 1 h after tail vein injection)?
The plasma radioactive counts was 3448 cpm and 3676 cpm and 2916 cpm.

What about the plasma radioactive counts ([1]; 2 h after tail vein injection) of the same molecule?
Its plasma radioactive counts is 539 cpm and 559 cpm and 458 cpm.

What about the plasma radioactive counts ([1]; 4 h after tail vein injection) of the same molecule?
Its plasma radioactive counts is 178 cpm and 135 cpm and 181 cpm.

And the plasma radioactive counts ([1]; 8 h after tail vein injection)?
Its plasma radioactive counts is 154 cpm and 191 cpm and 184 cpm.

What about the plasma radioactive counts ([1]; 24 h after tail vein injection) of the same molecule?
Its plasma radioactive counts is 191 cpm and 175 cpm and 179 cpm.

And the “plasma radioactive counts, MEAN” value [1, 5]?
Its value is 28653 cpm.

And the “plasma radioactive counts, MEAN” value [1, 6]?
Its value is 9127 cpm.

What about the “plasma radioactive counts, MEAN” value ([1]; 1 h after tail vein injection) of the same molecule?
Its value is 3347 cpm.

What about the “plasma radioactive counts, MEAN” value ([1]; 2 h after tail vein injection) of the same molecule?
The value was 519 cpm.

What about the “plasma radioactive counts, MEAN” value ([1]; 4 h after tail vein injection) of the same molecule?
Its value is 165 cpm.

And the “plasma radioactive counts, MEAN” value ([1]; 8 h after tail vein injection)?
Its value is 176 cpm.

And the “plasma radioactive counts, MEAN” value ([1]; 24 h after tail vein injection)?
The value was 182 cpm.

And the “tumor growth inhibition rate” value (22rv1 xenograft tumor)?
Its value is 71-80%.

What about the “specific absorption in PSMA-expressing tumors after 72 hours” value [2] of the same molecule?
The value was “high specific absorption”.

What about the “uptake of radioactivity in PSMA-expressing tumors compared with ^177Lu-PSMA-617” value [2] of the same molecule?
Its value is “higher uptake of radioactivity”.

What about the “accumulation in PSMA-positive tumors compared with reference animals injected with ^177Lu-PSMA-617” value [3] of the same molecule?
Its value is “significantly higher”.

And the route of excretion [3]?
The route of excretion was “mainly excreted through the kidney”.

And the “Heart, Averaged” value ([3]; 1 h)?
The value was 6.44 % ID/cc.

And the “Kidney, Averaged” value ([3]; 1 h)?
Its value is 165.36 % ID/cc.

And the “Liver, Averaged” value ([3]; 1 h)?
Its value is 3.08 % ID/cc.

What about the “Lung, Averaged” value ([3]; 1 h) of the same molecule?
The value was 5.52 % ID/cc.

And the “Tumor, Averaged” value ([3]; 1 h)?
The value was 23.56 % ID/cc.

And the “Heart, Averaged” value ([3]; 4 h)?
Its value is 2.41 % ID/cc.

What about the “Kidney, Averaged” value ([3]; 4 h) of the same molecule?
Its value is 129.55 % ID/cc.

And the “Liver, Averaged” value ([3]; 4 h)?
Its value is 2.03 % ID/cc.

What about the “Lung, Averaged” value ([3]; 4 h) of the same molecule?
The value was 3.26 % ID/cc.

And the “Tumor, Averaged” value ([3]; 4 h)?
The value was 28.79 % ID/cc.

And the “Heart, Averaged” value ([3]; 8 h)?
Its value is 1.39 % ID/cc.

And the “Kidney, Averaged” value ([3]; 8 h)?
Its value is 87.74 % ID/cc.

What about the “Liver, Averaged” value ([3]; 8 h) of the same molecule?
Its value is 2.54 % ID/cc.

What about the “Lung, Averaged” value ([3]; 8 h) of the same molecule?
Its value is 1.82 % ID/cc.

And the “Tumor, Averaged” value ([3]; 8 h)?
Its value is 31.79 % ID/cc.

What about the “Heart, Averaged” value ([3]; 1 d) of the same molecule?
Its value is 3.23 % ID/cc.

And the “Kidney, Averaged” value ([3]; 1 d)?
Its value is 8.03 % ID/cc.

What about the “Liver, Averaged” value ([3]; 1 d) of the same molecule?
The value was 1.94 % ID/cc.

And the “Lung, Averaged” value ([3]; 1 d)?
Its value is 2.71 % ID/cc.

What about the “Tumor, Averaged” value ([3]; 1 d) of the same molecule?
Its value is 34.01 % ID/cc.

What about the “Heart, Averaged” value ([3]; 3 d) of the same molecule?
Its value is 2.03 % ID/cc.

What about the “Kidney, Averaged” value ([3]; 3 d) of the same molecule?
Its value is 3.74 % ID/cc.

And the “Liver, Averaged” value ([3]; 3 d)?
Its value is 1.80 % ID/cc.

And the “Lung, Averaged” value ([3]; 3 d)?
Its value is 2.68 % ID/cc.

And the “Tumor, Averaged” value ([3]; 3 d)?
The value was 32.84 % ID/cc.

And the “uptake in each organ” value [4]?
The value was “low”.
